In patent US20260159486A1, “BENZO[H]QUINAZOLINE-4-AMINE DERIVATIVES FOR THE TREATMENT OF CANCER” (Redona Therapeutics, Inc., priority 2021, published 2026):

What was measured:
recombinant human CLK3 = biological target: T1, recombinant human CLK3 (Homo sapiens, UniProt P49761); experiment: CLK3 kinase assay (LANCE Ultra); assay type: biochemical; conditions: CLK3 0.5 nM, ATP 300 μM, 3 hours at 30° C.
T1 construct: purchased Thermo Fisher Scientific PV3826
Description: CLK3 kinase activity was measured using the LANCE® Ultra technology (PerkinElmer) essentially as recommended by the supplier. Briefly, 2.5 μL of test sample at 4× the desired final concentration in 4% DMSO were dispensed into white, low volume, round bottom, 384 well plates (Corning, cat. no. 4512). 5 μL of a mixture containing recombinant human CLK3 (Thermo Fisher Scientific, cat. no. PV3826) and the labeled peptide substrate ULight™-CREBtide (PerkinElmer, cat. no. TRF0107) prepared in 1.33× kinase buffer (Thermo Fisher Scientific, cat. no. PV3189) were then added. Finally, the reactions were started by adding 2.5 μL of a 4× solution of ATP in kinase buffer. The plates were sealed with adhesive foils and incubated for 3 hours at 30° C. in the dark. The final concentrations of CLK3, ULight™-CREBtide, and ATP were 0.5 nM, 50 nM, and 300 μM, respectively. 5 μL of 40 mM EDTA were then added to terminate the reactions. The Eu-anti-phospho-CREB antibody (PerkinElmer, cat. no. TRF0200) diluted in LANCE® detection buffer (PerkinElmer, cat. no. CR97) was then added to a final concentration of 2 nM and the reactions were incubated for 1 hour at room temperature in the dark. The signals were measured using a Synergy 4 reader (BioTek) with a 320/80 nm filter for the excitation and 620/10 nm and 665/8 nm filters for the donor and acceptor emission, respectively. Relative inhibition values were calculated by normalizing the raw data using solvent control wells (0% inhibition) and wells that received no ATP (100% inhibition). IC50 values were calculated by fitting the concentration-response data to a sigmoidal 4-parameter logistic model. IC50 values for CLK3 are determined from duplicate measurements at ten different concentrations (serial 1:3 dilutions).

MDA-MB-231 cells = experiment: MDA-MB-231 proliferation assay; assay type: cell-based; conditions: Homo sapiens, MDA-MB-231, 72 h, YO-PRO-1 Iodide readout
Excerpt: (§1) MDA-MB-231 and CAL-51 Proliferation Assay
(§2) Cells (MDA-MB-231 (American Type Culture Collection (ATCC), #HTB-26) or CAL-51 (Deutsche Sammlung von Mikroorganismen und Zellkulturen (DSMZ), #ACC302) as applicable) were cultivated in DMEM High Glucose (4.5 g/L) with L-Glutamine (BioConcept, cat. no. 1-26F03-I) supplemented with 1% Na-pyruvate (Sigma, cat. no. S8636), 1% Penicillin-Streptomycin (BioConcept, cat. no. 4-01F00H), and 10% FBS (Sigma, cat. no. F9665) using standard techniques. Cells were seeded in black, clear-bottom 384 well plates for tissue culture (Greiner Bio-One, cat. no. 781091) at a density of 750 cells per well in 20 μL medium and the plates were incubated overnight at 37° C. with 5% CO2 prior to treatment. Experimental compounds were serially diluted in DMSO to 200× the desired final concentrations. The solutions were then diluted 1:40 with culture medium and 5 μL aliquots were mixed into the wells containing the cells. The final concentration of DMSO was 0.5%. The plates were incubated for 72 hours and cell numbers were then measured using YO-PRO™-1 Iodide (ThermoFisher Scientific, cat. no. Y3603) essentially as recommended by the manufacturer. Briefly, a 12.5 μM solution of YO-PRO™_1 Iodide in 5× YO—PRO buffer (100 mM Na-citrate, 130 mM NaCl, pH 4) was combined with an equal volume of lysis buffer (0.6% NP-40, 30 mM EDTA, 30 mM EGTA, 0.33× YO—PRO buffer) and 12.5 μL of the mixture were dispensed into each well. The plates were incubated at room temperature in the dark for 30 minutes. Fluorescence intensity signals were then measured on a Synergy 4 reader (BioTek) using 485/20 nm and 530/25 nm filters for the excitation and emission, respectively. Relative proliferation values were calculated by normalizing the raw data using DMSO-treated cells (100% proliferation) and the signals obtained from cells that were evaluated at the time of compound addition (0% proliferation). The concentration-response data were fitted to a sigmoidal 4-parameter logistic model with the maximum constrained to 100%. GI50 values were calculated from the curves as the compound concentrations reducing proliferation to 50%.

CAL-51 cells = experiment: CAL-51 proliferation assay; assay type: cell-based; conditions: Homo sapiens, CAL-51, 72 h, YO-PRO-1 Iodide readout
Excerpt: as §1, §2

T1 sequence (P49761 whole entry): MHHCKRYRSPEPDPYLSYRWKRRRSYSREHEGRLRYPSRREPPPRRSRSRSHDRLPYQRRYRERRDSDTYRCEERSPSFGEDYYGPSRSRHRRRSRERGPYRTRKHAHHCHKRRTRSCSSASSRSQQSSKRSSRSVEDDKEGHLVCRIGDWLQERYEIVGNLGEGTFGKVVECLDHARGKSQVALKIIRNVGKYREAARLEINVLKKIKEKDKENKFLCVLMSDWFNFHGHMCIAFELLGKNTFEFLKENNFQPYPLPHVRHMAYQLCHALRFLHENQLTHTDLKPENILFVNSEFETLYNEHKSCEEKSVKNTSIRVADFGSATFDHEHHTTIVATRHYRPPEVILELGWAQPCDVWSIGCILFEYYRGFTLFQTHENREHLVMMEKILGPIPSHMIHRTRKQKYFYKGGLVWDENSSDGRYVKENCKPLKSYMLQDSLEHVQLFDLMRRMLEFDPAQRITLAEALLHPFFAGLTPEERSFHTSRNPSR

IC50 (recombinant human CLK3) [nM]	GI50 (MDA-MB-231 cells) [nM]	SMILES	GI50 (CAL-51 cells) [nM]
30 to 100	100 to 2000	COc1ccc2c(c1NCC(O)CO)CC(C)(C)c1c(N)ncnc1-2 (stereo not drawn) [Example 27, 3-[(4-amino-8-methoxy-5,5-dimethyl-6H-benzo[h]quinazolin-7-yl)amino]propane-1,2-diol]	100 to 2000
101 to 1000	100 to 2000	COc1ccc2c(c1N1CC(CO)C1)CC(C)(C)c1c(N)ncnc1-2 [Example 28, [1-(4-amino-8-methoxy-5,5-dimethyl-6H-benzo[h]quinazolin-7-yl)azetidin-3-yl]methanol]	100 to 2000
101 to 1000	100 to 2000	CN(CC1CCOCC1)c1c(O[C@H]2CC[C@@H](N)CC2)ccc2c1CC(C)(C)c1c(N)ncnc1-2 [Example 29, 8-(cis-4-aminocyclohexoxy)-N7,5,5-trimethyl-N7-(tetrahydropyran-4-ylmethyl)-6H-benzo[h]quinazoline-4,7-diamine]	100 to 2000
30 to 100	100 to 2000	CSCCN(C)c1c(O[C@H]2CC[C@@H](N)CC2)ccc2c1CC(C)(C)c1c(N)ncnc1-2 [Example 31, 8-(cis-4-aminocyclohexoxy)-N7,5,5-trimethyl-N7-(2-methylsulfanylethyl)-6H-benzo[h]quinazoline-4,7-diamine]	< 100
< 30	> 2000	CN(CCS(C)(=O)=O)c1c(O[C@H]2CC[C@@H](N)CC2)ccc2c1CC(C)(C)c1c(N)ncnc1-2 [Example 32, 8-(cis-4-aminocyclohexoxy)-N7,5,5-trimethyl-N7-(2-methylsulfonylethyl)-6H-benzo[h]quinazoline-4,7-diamine]	> 2000
< 30	100 to 2000	CN(CC#N)c1c(O[C@H]2CC[C@H](N)CC2)ccc2c1CC(C)(C)c1c(N)ncnc1-2 [Example 33, 2-[[4-amino-8-(trans-4-aminocyclohexoxy)-5,5-dimethyl-6H-benzo[h]quinazolin-7-yl]-methyl-amino]acetonitrile]	< 100
101 to 1000	100 to 2000	CC1(C)C(=O)c2c(ccc(O[C@H]3CC[C@H](N)CC3)c2N)-c2ncnc(N)c21 [Example 34, 4,7-diamino-8-(trans-4-aminocyclohexoxy)-5,5-dimethyl-benzo[h]quinazolin-6-one]	100 to 2000
30 to 100	100 to 2000	CC1(C)Cc2c(ccc(O[C@H]3CC[C@H](N)CC3)c2NCC#N)-c2ncnc(N)c21 [Example 35, 2-[[4-amino-8-(trans-4-aminocyclohexoxy)-5,5-dimethyl-6H-benzo[h]quinazolin-7-yl]amino]acetonitrile]	100 to 2000
101 to 1000	100 to 2000	CCOCCN(C)c1c(O[C@H]2CC[C@H](N)CC2)ccc2c1CC(C)(C)c1c(N)ncnc1-2 [Example 36, 8-(trans-4-aminocyclohexoxy)-N7-(2-ethoxyethyl)-N7,5,5-trimethyl-6H-benzo[h]quinazoline-4,7-diamine]	100 to 2000
30 to 100	> 2000	CC(=O)NCCN(C)c1c(O[C@H]2CC[C@H](N)CC2)ccc2c1CC(C)(C)c1c(N)ncnc1-2 [Example 38, N-[2-[[4-amino-8-(trans-4-aminocyclohexoxy)-5,5-dimethyl-6H-benzo[h]quinazolin-7-yl]-methyl-amino]ethyl]acetamide]	100 to 2000
101 to 1000	> 2000	CN(CCNS(C)(=O)=O)c1c(O[C@H]2CC[C@H](N)CC2)ccc2c1CC(C)(C)c1c(N)ncnc1-2 [Example 39, N-[2-[[4-amino-8-(trans-4-aminocyclohexoxy)-5,5-dimethyl-6H-benzo[h]quinazolin-7-yl]-methyl-amino]ethyl]methanesulfonamide]	100 to 2000
101 to 1000	> 2000	CN(C(=O)CO)c1c(O[C@H]2CC[C@H](N)CC2)ccc2c1CC(C)(C)c1c(N)ncnc1-2 [Example 41, N-[4-amino-8-(trans-4-aminocyclohexoxy)-5,5-dimethyl-6H-benzo[h]quinazolin-7-yl]-2-hydroxy-N-methyl-acetamide]	> 2000
30 to 100	> 2000	CC1(C)Cc2c(ccc(O[C@H]3CC[C@H](N)CC3)c2NS(=O)(=O)CCO)-c2ncnc(N)c21 [Example 42, N-[4-amino-8-(trans-4-aminocyclohexoxy)-5,5-dimethyl-6H-benzo[h]quinazolin-7-yl]-2-hydroxy-ethanesulfonamide]	> 2000
30 to 100	100 to 2000	CN(CCC(F)(F)F)c1c(O[C@H]2CC[C@H](N)CC2)ccc2c1CC(C)(C)c1c(N)ncnc1-2 [Example 43, 8-(trans-4-aminocyclohexoxy)-N7,5,5-trimethyl-N7-(3,3,3-trifluoropropyl)-6H-benzo[h]quinazoline-4,7-diamine]	100 to 2000
< 30	100 to 2000	CN(c1c(O[C@H]2CC[C@H](N)CC2)ccc2c1CC(C)(C)c1c(N)ncnc1-2)S(=O)(=O)CCO [Example 44, N-[4-amino-8-(4-trans-aminocyclohexoxy)-5,5-dimethyl-6H-benzo[h]quinazolin-7-yl]-2-hydroxy-N-methyl-ethanesulfonamide]	100 to 2000
101 to 1000	> 2000	CC1(C)Cc2c(ccc(O[C@H]3CC[C@H](N)CC3)c2NC(=O)CO)-c2ncnc(N)c21 [Example 45, N-[4-amino-8-(trans-4-aminocyclohexoxy)-5,5-dimethyl-6H-benzo[h]quinazolin-7-yl]-2-hydroxy-acetamide]	> 2000
30 to 100	100 to 2000	CN(CCOC(F)(F)F)c1c(O[C@H]2CC[C@H](N)CC2)ccc2c1CC(C)(C)c1c(N)ncnc1-2 [Example 47, 8-(trans-4-aminocyclohexoxy)-N7,5,5-trimethyl-N7-[2-(trifluoromethoxy)ethyl]-6H-benzo[h]quinazoline-4,7-diamine]	< 100
< 30	< 100	CN(CC1(C#N)CC1)c1c(O[C@H]2CC[C@H](N)CC2)ccc2c1CC(C)(C)c1c(N)ncnc1-2 [Example 48, 1-[[[4-amino-8-(trans-4-aminocyclohexoxy)-5,5-dimethyl-6H-benzo[h]quinazolin-7-yl]-methyl-amino]methyl]cyclopropanecarbonitrile]	< 100
< 30	< 100	CC1(C)Cc2c(ccc(O[C@H]3CC[C@H](N)CC3)c2N(CCC#N)C2CC2)-c2ncnc(N)c21 [Example 51, 3-[[4-amino-8-(trans-4-aminocyclohexoxy)-5,5-dimethyl-6H-benzo[h]quinazolin-7-yl]-cyclopropyl-amino]propanenitrile]	< 100
< 30	< 100	CN(CCC#N)c1c(O[C@H]2CC[C@H](N3CCOCC3)CC2)ccc2c1CC(C)(C)c1c(N)ncnc1-2 [Example 52, 3-[[4-amino-5,5-dimethyl-8-(trans-4-morpholinocyclohexoxy)-6H-benzo[h]quinazolin-7-yl]-methyl-amino]propanenitrile]	< 100
